Experimental data from PMC12346480, “The Pharmacokinetic and Pharmacodynamic Relationship of Clinically Used Antiseizure Medications in the Maximal Electroshock Seizure Model in Rodents” (International Journal of Molecular Sciences, 2025).
Read-outs that look alike come from different tables or passages of the source.

Assays:
MES-induced seizures [1] = assay: animal or person; type: in vivo
Experimental: (§1) Animals were group-housed (2–4 mice or 3–4 rats per cage) in plastic cages and maintained under controlled temperature (18–25 °C), humidity, ventilation, and lighting (12 h light/dark cycle). They had free access to water and Certified Rodent Chow (Teklad Rodent Chow). Upon arrival, the animals were examined to ensure good health status and were acclimated to the facility for at least 5 days before being subjected to the MES protocol. All experiments were conducted in accordance with guidelines set by the Canadian Council on Animal Care and approved by the Xenon Animal Care Committee.
(§2) Drugs were administered by the intraperitoneal route (IP; dissolved in sterile saline) or oral route (PO; dissolved in 0.5% methylcellulose + 0.2% Tween 80 in DI water) in a volume of 10 mL/kg. Control animals received the appropriate vehicle. The doses and pre-treatment times for each drug, detailed in Table 2, were determined based on in-house data or, in some cases, from the publicly available PANACHE database.
(§3) The MES assay is widely used in the search for anticonvulsant substances. This animal model for generalized tonic–clonic seizures assesses a compound’s ability to prevent seizure spread. […] Before the electroshock stimulation, the eyes were anesthetized with a topical application of 0.5% proparacaine hydrochloride (one drop per eye). Animals were then restrained; the corneal electrodes were applied, and the shock was administered. An MES-induced seizure was characterized by an initial generalized tonic seizure with a hindlimb tonic extensor component.
(§4) The protocols for administering PO or IP doses of the vehicle or drug are described in […]. These doses were administered 0.5–2 h before the application of electric stimulation. An animal was considered protected from MES-induced seizures if the hindlimb tonic extensor component of the seizure was abolished, and it was scored as “0”. […] Seizure induction and scoring were performed by an experimenter who was blinded to treatment conditions.
(§5) After being subjected to the stimulation protocol, rodents were anesthetized by isoflurane inhalation until they reached a surgical plane of anesthesia. Approximately 0.5 mL of blood was collected via cardiac puncture and transferred to EDTA-coated tubes on ice. Animals were then euthanized by cervical dislocation, and their brains were removed, weighed, and immediately frozen on dry ice. At the end of sample collection, blood was centrifuged at 4000 rpm for 10 min at 4 °C, and the plasma was separated. All samples were stored at −80 °C until the time of bioanalysis.
(§6) Plasma samples were extracted for analysis using a protein precipitation method with acetonitrile. A total of 50 µL of diluted plasma samples was mixed with 50 µL of an internal standard (IS) solution in a 1:1 mixture of acetonitrile and water. A total of 200 µL of acetonitrile was then added to the mixture, which was vortexed for 30 s. The samples were centrifuged at 13,000 rpm for 20 min, decanted into a 96-well plate, and further centrifuged at 4000 rpm for 20 min. The samples were then analyzed using ultra-high-performance electrospray ionization tandem mass spectrometry (UHPLC-ESI-MS/MS).
(§7) Brains were homogenized in a 1:1 mixture of acetonitrile and water (2 mL per mouse brain) using the T18 ULTRA-TURRAX (IKA, Staufen im Breisgau, Germany) homogenizer for about 1 min. The homogenate was centrifuged at 13,000 rpm for 20 min, and 50 µL of the supernatant was treated in the same way as the plasma samples for analysis.
(§8) At 1.5 min, the mobile phase composition was switched back to 50% B at 1.6 min and then held at 50% B until 2.5 min. The flow rate used throughout the experiment was 0.4 mL/min. […] Each compound was matched with a proprietary co-eluting internal standard. The UHPLC-ESI MS/MS system was controlled, and samples were quantified using Analyst 1.6.

MES-induced seizures [2] = assay: Alternating current maximal electroshock seizure assay (AC-MES) in rats with plasma and brain exposure; type: in vivo, Sprague-Dawley rats; conditions: for ED50: single PO dose, pre-treatment 0.5-2 h per Table 2, read-out: ED50 (median effective dose)
Experimental: as §1, §2, §3, §4, §5, §6, §7, §8

[3] = Brain-to-plasma ratio in mice; conditions: CF-1, mouse
Experimental: as §5, §6, §7, §8

[4] = Brain-to-plasma ratio in rats; conditions: Sprague-Dawley, rat
Experimental: as §5, §6, §7, §8

[5] = Plasma protein binding, mouse; conditions: Xenon in-house data
Source text: (§9) PPB data is available in Supplemental Table S1.
(§10) Supplemental Table S1. Summary of effective plasma concentrations, plasma protein binding (PPB), and unbound plasma concentrations (Cp,u) for the ASMs tested in mice, rats and humans.
(§11) *For mouse and rat, plasma EC50 from the MES assay at one time point after a single dose is shown. For human, literature-reported therapeutic plasma concentrations are shown. […]
(§12) mouse, for which published data were used. For human, published data is shown.
(§13) *** Cp,u values for rodents have been calculated based on MES EC50. Cp,u values for humans represent the lower and upper bounds of reported therapeutic plasma concentrations, adjusted for PPB, as reported in clinical pharmacokinetic

[6] = Plasma protein binding, rat; conditions: Xenon in-house data
Source text: as §9, §10, §11, §12, §13

MES-induced seizures [7] = assay: animal or person; type: in vivo; conditions: mouse MES; single dose, route and pre-treatment time per Table 2 (PO or IP, 0.25-2 h); read-out: ED50 (median effective dose)
[8] = human plasma; published data ref 36-47; cited from earlier work
[9] = human, cited from earlier work; for Effective plasma concentration: literature-reported therapeutic plasma concentrations ref 36-47; for Cp,u (unbound therapeutic plasma concentration): lower and upper bounds of therapeutic plasma concentrations adjusted for PPB ref 36-47
[10] = mouse plasma, cited from earlier work
[11] = design: method as in earlier work; conditions: rat plasma; published data ref 34; cited from earlier work
[12] = mouse MES, brain concentration for 50% probability of seizure protection, read-out: EC50 Brain
[13] = mouse MES, plasma concentration for 50% probability of seizure protection, one time point after single dose, read-out: EC50 Plasma
[14] = mouse, calculated based on MES EC50 and PPB, read-out: Cp,u EC50 (unbound plasma concentration)
[15] = rat MES, brain concentration for 50% probability of seizure protection, read-out: EC50 Brain
[16] = rat MES, plasma concentration for 50% probability of seizure protection, one time point after single dose, read-out: EC50 Plasma
[17] = rat, calculated based on MES EC50 and PPB, read-out: Cp,u EC50 (unbound plasma concentration)
[18] = Rattus norvegicus, read-out: Cp,u EC50 (unbound plasma concentration)
[19] = Rattus norvegicus, read-out: EC50 Brain
[20] = Rattus norvegicus, read-out: EC50 Plasma

| Structure (SMILES) | EC50 (MES-induced seizures [1]; [12]) | EC50 (MES-induced seizures [1]; [13]) | EC50 (MES-induced seizures [1]; [14]) | EC50 (MES-induced seizures [2]; [15]) | EC50 (MES-induced seizures [2]; [16]) | ED50 (MES-induced seizures [2]; rat MES) | EC50 (MES-induced seizures [2]; [17]) | Kp ([3]; brain and plasma, oral) | Kp ([4]; brain and plasma, oral) | PPB (% bound) [5] | PPB (% bound) [6] | ED50 (MES-induced seizures [7]) | PPB (% bound) [8] | Effective plasma concentration [9] | Cp,u (unbound therapeutic plasma concentration) [9] | EC50 (MES-induced seizures [2]; [18]) | EC50 (MES-induced seizures [2]; [19]) | EC50 (MES-induced seizures [2]; [20]) | Kp ([3]; in vivo) | Kp ([4]; in vivo) | also measured |
| --- | --- | --- | --- | --- | --- | --- | --- | --- | --- | --- | --- | --- | --- | --- | --- | --- | --- | --- | --- | --- | --- |
| NC(=O)N1c2ccccc2C=Cc2ccccc21 [CBZ, carbamazepine] | 32.5 µM | 13.8 µM | 7.04 µM | 4.7 µM | 4.55 µM | 4.39 mg/kg | 1.63 µM | 2.36 | 1.03 | 52.4 % bound | 63.9 % bound | 9.67 mg/kg | 75.0 % bound | 17 to 51 µM | 4.25 to 12.8 µM |  |  |  |  |  |  |
| NC(=O)O[C@@H](Cn1ncnn1)c1ccccc1Cl [CNB, cenobamate] | 24.9 µM | 66 µM | 40.1 µM |  |  |  |  |  |  |  | 46.1 % bound | 7.05 mg/kg | 60.0 % bound | 89.3 to 170 µM | 35.7 to 68.0 µM | 8.93 µM | 10.7 µM | 15.9 µM | 0.38 | 0.67 | Doses giving significant reduction of MES-induced seizures (fraction seizing) (MES-induced seizures [2]; rat MES, vs vehicle, Kruskal-Wallis/Dunn): 18 mg/kg; PPB (% bound) ([10]; published data ref 35): 43.2 % bound |
| COC[C@@H](NC(C)=O)C(=O)NCc1ccccc1 [LSM, lacosamide] | 14.8 µM | 19.3 µM | 15.6 µM |  |  |  |  |  |  | 21.8 % bound | 22.9 % bound | 15.2 mg/kg | 13.4 % bound |  |  | 22.2 µM | 12.2 µM | 24.9 µM | 0.77 | 0.49 |  |
| O=C1NC(=O)C(c2ccccc2)(c2ccccc2)N1 [PHT, phenytoin] | 30.6 µM | 27.6 µM | 5.37 µM | 2.66 µM | 3.2 µM | 16.9 mg/kg | 0.89 µM | 1.11 | 0.83 | 80.3 % bound | 80.6 % bound | 9.81 mg/kg | 90.0 % bound | 40 to 79 µM | 4.00 to 7.90 µM |  |  |  |  |  |  |
| CCOC(=O)Nc1ccc(NCc2ccc(F)cc2)cc1N [RTG, retigabine] |  | 2.26 µM | 0.52 µM |  |  |  |  |  |  | 86.2 % bound | 85.1 % bound |  | 80.0 % bound | 1.98 to 3.99 µM |  | 0.2 µM |  | 1.46 µM |  |  |  |
| CCCC(CCC)C(=O)O [VPA, valproic acid] |  | 1670 µM | 1640 µM |  |  |  |  | 0.38 | 0.24 |  |  | 196 mg/kg | 90.0 % bound | 346 to 693 µM | 34.6 to 69.3 µM | 647 µM | 307 µM | 1310 µM |  |  | EC50 (MES-induced seizures [1]; Mus musculus, read-out: EC50 Brain): 630 µM; PPB (% bound) [11]: 66.5 % bound; PPB (% bound) ([10]; published data ref 34): 12.0 % bound |
